Patent US20170147743A1, “RAPID IDENTIFICATION OF PHARMACOLOGICAL TARGETS AND ANTI-TARGETS FOR DRUG DISCOVERY AND REPURPOSING” (UNIVERSITY OF MIAMI, priority 2015, published 2017)

How the values were obtained:
[1] = test system: representative target kinases; assay: Target/anti-target activity matrix from kinase profiling; assay type: biochemical; conditions: FIG. 3B matrix; seven targets
Experimental: (§1) Activity Profiling of Screened Kinase Inhibitors. In vitro profiling of kinase inhibitors against a panel of 190 kinases was performed. Out of bound values were cropped, whereby values below 0% were adjusted to 0%, and values above 100% were adjusted to 100%.
(§2) FIG. 3B illustrates a resultant target-anti-target activity matrix developed by the identification system (e.g., at process 114). The target/anti-target matrix identifies protein target groups separately from protein anti-target groups, where each group type may be ranked according to various factors, such as biologic activity and inhibition bias. Engagement of the protein targets in the matrix promotes a biological activity; and engagement of the protein anti-targets in the matrix impedes the biological activity. In the particular example of FIG. 3B, representative protein kinases for each kinase group and the compounds that inhibit at least one member in the group by ≧10% are shown. […] Compounds are arranged top to bottom in order of decreasing maximum % NTL (right-hand color scale). […] RO0480500-002 accordingly produced % NTL up to 400%, well above the % NTL of any of the other compound. […]

[2] = test system: representative anti-target kinases; assay: as above; assay type: biochemical; conditions: FIG. 3B matrix
Experimental: as §1, §2

[3] = test system: rat embryonic (E18) hippocampal neurons; assay: Neurite outgrowth screening assay with hippocampal neurons; assay type: cell-based; conditions: neurite total length as percentage of control; for NTL_32 (neurite outgrowth, % NTL): concentration 32 (unit not given); for NTL_160 (neurite outgrowth, % NTL): concentration 160 (unit not given); for NTL_800 (neurite outgrowth, % NTL): concentration 800 (unit not given); for NTL_4000 (neurite outgrowth, % NTL): concentration 4000 (unit not given); for NTL_20000 (neurite outgrowth, % NTL): concentration 20000 (unit not given)
From the text: Neurite Outgrowth Screening Assay with Hippocampal Neurons. Kinase inhibitor libraries were screened in a neurite outgrowth assay. Compounds were screened on rat embryonic (E18) hippocampal neurons cultured for 2 DIV on poly-D-lysine. Plates were fixed, immunostained, and imaged. Screened compounds were classified based on their effects on neurite total length, expressed as percentage of control (% NTL), which served as the biological activity referenced in FIG. 1, for this example. Hits were defined as compounds whose biologic activity (% NTL) reached at least 130% in two independent experiments (hits: % NTL 130; non-hits: % NTL<130). That is, in this example an NTL of 130 was used as the threshold measure (see, e.g., FIGS. 8 and 9). […] A stratification (assurance) step was performed by eliminating from subsequent analysis compounds that had biologic activity within 1 standard deviation of the hit threshold (130±15) (see, e.g., FIG. 6A). Compounds that reduced viable cell count (biologic activity) by more than 40% at concentrations below 800 nM were considered to be toxic and also excluded from subsequent analysis.

| inhibition of representative target kinases [1] | inhibition of representative anti-target kinases [2] | Structure (SMILES) | NTL_32 (neurite outgrowth, % NTL) [3] [%] | NTL_160 (neurite outgrowth, % NTL) [3] [%] | NTL_800 (neurite outgrowth, % NTL) [3] [%] | NTL_4000 (neurite outgrowth, % NTL) [3] [%] | NTL_20000 (neurite outgrowth, % NTL) [3] [%] |
| --- | --- | --- | --- | --- | --- | --- | --- |
| inhibits the two target kinases | does not inhibit any | COc1cc(N2CCC(N3CCN(C)CC3)CC2)ccc1Nc1ncnc(Nc2ccccc2S(=O)(=O)C(C)C)n1 [ASP3026] |  |  |  |  |  |
|  |  | c1ccc(-c2cnc(Nc3ccc(OCCN4CCCC4)cc3)s2)cc1 [Flt-3 Inhibitor III] | 227.0293 | 250.8023 | 291.5283 | 105.129 | 48.44 |
|  |  | NS(=O)(=O)c1cccc(N/C=C2\C(=O)Nc3ccc(S(=O)(=O)Cc4c(Cl)cccc4Cl)cc32)c1 [GSK398099A] | 100.7527 | 86.99 | 91.2121 | 234.4329 | 357.738 |
|  |  | NC[C@H](CC1CCCCC1)NC(=O)c1ccc(-c2ccnc3[nH]ccc23)s1 [GSK1581428A] | 229.399 | 335.5001 | 262.488 | 92.84 | 36.79 |
|  |  | N#Cc1ccc(-c2cc(-c3c[nH]nc3-c3ccccn3)ccn2)cc1 [GW693028X] | 114.3254 | 101.7908 | 99.07 | 110.3241 | 296.1224 |
|  |  | N#CC(=C(N)Sc1ccc(N)cc1)c1ccccc1C(F)(F)F [MEK1/2 Inhibitor] | 109.3381 | 101.2957 | 104.668 | 120.1756 | 286.068 |
|  |  | Cl.O=S(=O)(c1cccc2c(I)cccc12)N1CCCNCC1 [ML-7, Hydrochloride] | 193.8632 | 288.4679 | 285.3279 | 269.3169 | 70.23 |
